Each block holds one compound with its values, some of them ahead of it.
How the values were obtained:
BRD4 BD1 = target: T1, BRD4 BD1 (Homo sapiens, UniProt O60885); assay: AlphaScreen binding assay, BRD4 Bromodomain 1
T1 construct: made in house
How it was run: (§1)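 An AlphaScreen competition format was used with His-BRD4 BD1 or BD2 and biotin-H4 K5/8/12/16-acetyl peptide, each at matched final levels of 50 nM (BD1) or 100 nM (BD2). Incubation in HEPES/NaCl buffer with 0.1% BSA and 0.01% Triton X-100 ran ≥1 h before IC50 determination.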

MV4-11 cells = assay: Oncology cell growth assay (3-day proliferation, CellTiter-Glo); type: cell-based; conditions: Homo sapiens, MV4-11, 72 h, AML cell line MV4-11, 72 hours, compounds grouped by IC50 range, read-out: MV4-11 IC50 (inhibition of proliferation, gIC50)
Method: The impact of Example compounds on cancer cell proliferation was determined using the acute myelocytic leukemia (AML) cell line MV4-11 (ATCC) in a 3-day proliferation assay. MV4-11 cells were maintained in RPMI 1640 media supplemented with 10% FBS at 37° C. and an atmosphere of 5% CO2. For compound testing, compound dilutions series were prepared in DMSO via a 3-fold serial dilution from 2 mM to 0.001 mM in 384-well white flat bottom plates. The final compound concentrations in the wells were 10, 3.3, 1.1, 0.37, 0.12, 0.041, 0.013 and 0.0045 μM. MV4-11 cells were plated at a density of 3000 cells/well in final volume of 50 μl culture media and incubated for 72 hours. […] Luminescent signal from the CellTiter-Glo assay was read on an EnVision multilabel plate reader (PerkinElmer). Values for the concentration that inhibited cell growth by 50% (gIC50) between the DMSO control and background control (no cells) were determined using IDBS Activity Base software with a four parameter logistic curve fit by the equation y=A+((B−A)/(1+((C/x)^D))), wherein A denotes the bottom plateau of the curve, B denotes the top plateau of the curve, C denotes the x value at the middle of the curve, D denotes the slope factor, x denotes the original known x values, and y denotes the original known y values. Data was fitted using the Levenburg Marquardt algorithm.

BRD4 BD2 = target: T2, BRD4 BD2 (Homo sapiens, UniProt O60885); assay: AlphaScreen binding assay, BRD4 Bromodomain 2
T2 construct: made in house
How it was run: as §1

IC50 (BRD4 BD1): 100 to 1000 nM
IC50 (MV4-11 cells): 100 to 500 nM
Structure (SMILES): CC(=O)N1c2ccc(-c3ccc(C(=O)NCCN)cc3)cc2N(C(=O)OC(C)C)C[C@@H]1C [Example I-480]

IC50 (BRD4 BD1): 100 to 1000 nM
IC50 (BRD4 BD2): 50 to 500 nM
Structure (SMILES): C[C@H]1CN(C(=O)C2CC2)c2cc(-c3ccc(C4(O)COC4)cc3)ccc2N1C(=O)C1CC1 [Example I-444]

IC50 (BRD4 BD1): 1000 to 10000 nM
IC50 (BRD4 BD2): < 50 nM
Structure (SMILES): CC(=O)N1c2ccc(-c3ccncc3)cc2N(C(=O)c2ccco2)C[C@@H]1C [Example I-820]

IC50 (BRD4 BD1): 1000 to 10000 nM
IC50 (BRD4 BD2): > 500 nM
Structure (SMILES): CC(=O)N1c2ccc(N(C)c3ccccc3)cc2N(C(=O)c2ccco2)C[C@@H]1C [Example I-992]

IC50 (BRD4 BD1): > 10000 nM
IC50 (BRD4 BD2): > 500 nM
Structure (SMILES): CC(=O)N1c2ccccc2N(C(=O)c2cc(C)on2)C[C@@H]1C [Example I-722]

IC50 (BRD4 BD1): 1000 to 10000 nM
IC50 (BRD4 BD2): 50 to 500 nM
Structure (SMILES): COc1ncc(-c2ccc3c(c2)N(C(=O)c2ccco2)C[C@H](C)N3C(C)=O)cn1 [Example I-834]

IC50 (BRD4 BD1): 1000 to 10000 nM
IC50 (BRD4 BD2): 50 to 500 nM
Structure (SMILES): CC(=O)N1c2ccc(-c3ccc(S(C)(=O)=O)cc3)cc2N(C(=O)c2cc3cc(Cl)ccc3[nH]2)CC1C (stereo not shown) [Example I-785]

IC50 (BRD4 BD1): 1000 to 10000 nM
IC50 (BRD4 BD2): > 500 nM
Structure (SMILES): CC(=O)N1c2ccc(-c3cnn(CC(=O)O)c3)cc2N(C(=O)C2CC2)C[C@@H]1C [Example I-676]

IC50 (BRD4 BD1): > 10000 nM
IC50 (BRD4 BD2): > 500 nM
Structure (SMILES): CC(=O)N1c2ccccc2N(C(=O)c2ccccc2Oc2ccccc2)C[C@@H]1C [Example I-744]

IC50 (BRD4 BD1): 1000 to 10000 nM
IC50 (BRD4 BD2): 50 to 500 nM
Structure (SMILES): CC(=O)N1c2ccc(N3CCCC3)cc2N(C(=O)c2ccco2)C[C@@H]1C [Example I-993]

IC50 (BRD4 BD1): 1000 to 10000 nM
IC50 (BRD4 BD2): 50 to 500 nM
Structure (SMILES): CC(=O)N1c2ccc(-c3cnn(CCC(N)=O)c3)cc2N(C(=O)C2CC2)C[C@@H]1C [Example I-674]

IC50 (BRD4 BD1): > 10000 nM
IC50 (BRD4 BD2): > 500 nM
Structure (SMILES): CC(=O)N1c2ccc(-c3cc(C(F)(F)F)nn3C)cc2N(C(=O)c2ccco2)C[C@@H]1C [Example I-851]

IC50 (BRD4 BD1): 1000 to 10000 nM
IC50 (BRD4 BD2): 50 to 500 nM
Structure (SMILES): COc1ccc(-c2ccc3c(c2)N(C(=O)c2ccco2)C[C@H](C)N3C(C)=O)cn1 [Example I-833]

IC50 (BRD4 BD1): > 10000 nM
IC50 (BRD4 BD2): > 500 nM
Structure (SMILES): CC(=O)N1c2ccccc2N(C(=O)c2cc3ccccn3n2)C[C@@H]1C [Example I-771]

IC50 (BRD4 BD1): 1000 to 10000 nM
IC50 (BRD4 BD2): 50 to 500 nM
Structure (SMILES): COC(=O)N1c2ccc(-c3cnc(N)cn3)cc2N(C(=O)C2CC2)C[C@@H]1C [Example I-458]

IC50 (BRD4 BD1): 1000 to 10000 nM
IC50 (BRD4 BD2): > 500 nM
Structure (SMILES): COC(=O)N1c2ccc(-c3ccc(N(C)S(C)(=O)=O)cc3)cc2N(C(=O)Oc2cccnc2)C[C@@H]1C [Example I-1293]

IC50 (BRD4 BD1): 100 to 1000 nM
IC50 (BRD4 BD2): 50 to 500 nM
Structure (SMILES): CC(=O)N1c2ccc(-c3cnn(CC4CCS(=O)(=O)CC4)c3)cc2N(C(=O)C2CC2)C[C@@H]1C [Example I-684]

IC50 (BRD4 BD1): > 10000 nM
IC50 (BRD4 BD2): > 500 nM
Structure (SMILES): CC(=O)N1c2ccccc2N(C(=O)Cc2cccs2)C[C@@H]1C [Example I-731]

IC50 (BRD4 BD1): 1000 to 10000 nM
IC50 (BRD4 BD2): 50 to 500 nM
Structure (SMILES): CC(=O)N1c2ccc(-c3cncc(F)c3)cc2N(C(=O)c2ccco2)C[C@@H]1C [Example I-830]

IC50 (BRD4 BD1): > 10000 nM
IC50 (BRD4 BD2): > 500 nM
Structure (SMILES): CC(=O)N1c2ccc(-c3ccc(S(C)(=O)=O)cc3)cc2N(C(=O)Nc2ccccc2C)C[C@@H]1C [Example I-966]

Second part, the compound before the results:

Structure (SMILES): CC(=O)N1c2ccc(-c3cnn(C4CCNC(=O)C4)c3)cc2N(C(=O)OC2CCOCC2)C[C@@H]1C (stereo partly drawn) [Example I-163, oxan-4-yl (3S)-4-acetyl-3-methyl-7-[1-(2-oxopiperidin-4-yl)-1H-pyrazol-4-yl]-1,2,3,4-tetrahydroquinoxaline-1-carboxylate]
IC50 (BRD4 BD1): 100 to 1000 nM
IC50 (MV4-11 cells): 100 to 500 nM

Structure (SMILES): CC(=O)N1c2ccc(-c3cnn(C4CN[C@@H]4C)c3)cc2N(C(=O)OC2CCC2)C[C@@H]1C (stereo partly drawn) [Example I-170, cyclobutyl (3S)-4-acetyl-3-methyl-7-{1-[(2R)-2-methylazetidin-3-yl]-1H-pyrazol-4-yl}-1,2,3,4-tetrahydroquinoxaline-1-carboxylate]
IC50 (BRD4 BD1): 100 to 1000 nM
IC50 (MV4-11 cells): 100 to 500 nM

Structure (SMILES): CC(=O)N1c2ccc(-c3cnn([C@@H]4CCCS(=O)(=O)C4)c3)cc2N(C(=O)OC2CCC2)C[C@@H]1C [Example I-173, cyclobutyl (3S)-4-acetyl-7-{1-[(3R)-1,1-dioxo-1λ^6-thian-3-yl]-1H-pyrazol-4-yl}-3-methyl-1,2,3,4-tetrahydroquinoxaline-1-carboxylate]
IC50 (BRD4 BD1): 100 to 1000 nM
IC50 (MV4-11 cells): < 100 nM

Structure (SMILES): CC(=O)N1c2ccc(-c3cnn(C4CCNC(=O)C4)c3)cc2N(C(=O)OC2CCC(F)(F)CC2)C[C@@H]1C (stereo partly drawn) [Example I-165, 4,4-difluorocyclohexyl (3S)-4-acetyl-3-methyl-7-[1-(2-oxopiperidin-4-yl)-1H-pyrazol-4-yl]-1,2,3,4-tetrahydroquinoxaline-1-carboxylate]
IC50 (BRD4 BD1): 100 to 1000 nM
IC50 (MV4-11 cells): 100 to 500 nM

Structure (SMILES): CC(=O)N1c2ccc(-c3cnn(C4CCNC(=O)C4)c3)cc2N(C(=O)OC2CC(F)(F)C2)C[C@@H]1C (stereo partly drawn) [Example I-164, 3,3-difluorocyclobutyl (3S)-4-acetyl-3-methyl-7-[1-(2-oxopiperidin-4-yl)-1H-pyrazol-4-yl]-1,2,3,4-tetrahydroquinoxaline-1-carboxylate]
IC50 (BRD4 BD1): 100 to 1000 nM
IC50 (MV4-11 cells): > 500 nM

Structure (SMILES): CC(=O)N1c2ccc(-c3cnn(C4CCNC(=O)C4)c3)cc2N(C(=O)OC2CCC2)C[C@@H]1C (single isomer, unassigned) [Example I-176]
IC50 (BRD4 BD1): 100 to 1000 nM
IC50 (MV4-11 cells): 100 to 500 nM

Structure (SMILES): CC(=O)N1c2ccc(-c3cnn(C4CCNC(=O)C4)c3)cc2N(C(=O)OC2CCC2)C[C@@H]1C (stereo partly drawn) [Example I-175, cyclobutyl (3S)-4-acetyl-3-methyl-7-[1-(2-oxopiperidin-4-yl)-1H-pyrazol-4-yl]-1,2,3,4-tetrahydroquinoxaline-1-carboxylate]
IC50 (BRD4 BD1): < 100 nM
IC50 (MV4-11 cells): < 100 nM

Structure (SMILES): CC(=O)N1c2ccc(-c3cnn(C4CN[C@H]4C)c3)cc2N(C(=O)C2CC2)C[C@@H]1C (stereo partly drawn) [Example I-160, 1-[(2S)-4-cyclopropanecarbonyl-2-methyl-6-{1-[(2S)-2-methylazetidin-3-yl]-1H-pyrazol-4-yl}-1,2,3,4-tetrahydroquinoxalin-1-yl]ethan-1-one]
IC50 (BRD4 BD1): 100 to 1000 nM
IC50 (MV4-11 cells): < 100 nM

Structure (SMILES): CC(=O)N1c2ccc(-c3cnn(C4CN[C@H]4C)c3)cc2N(C(=O)OC2CC(F)(F)C2)C[C@@H]1C (mixture of isomers) [Example I-168, 3,3-difluorocyclobutyl (3S)-4-acetyl-3-methyl-7-{1-[(2S)-2-methylazetidin-3-yl]-1H-pyrazol-4-yl}-1,2,3,4-tetrahydroquinoxaline-1-carboxylate]
IC50 (BRD4 BD1): 100 to 1000 nM
IC50 (MV4-11 cells): > 500 nM

Structure (SMILES): CC(=O)N1c2ccc(-c3cnn([C@H]4CCCS(=O)(=O)C4)c3)cc2N(C(=O)OC2CCC2)C[C@@H]1C [Example I-174, cyclobutyl (3S)-4-acetyl-7-{1-[(3S)-1,1-dioxo-1λ^6-thian-3-yl]-1H-pyrazol-4-yl}-3-methyl-1,2,3,4-tetrahydroquinoxaline-1-carboxylate]
IC50 (BRD4 BD1): < 100 nM
IC50 (MV4-11 cells): < 100 nM

Structure (SMILES): CC(=O)N1c2ccc(-c3cnn(C4CS(=O)(=O)C4)c3)cc2N(C(=O)OC2CC(F)(F)C2)C[C@@H]1C [Example I-1, 3,3-difluorocyclobutyl (3S)-4-acetyl-7-[1-(1,1-dioxo-1λ^6-thietan-3-yl)-1H-pyrazol-4-yl]-3-methyl-1,2,3,4-tetrahydroquinoxaline-1-carboxylate]
IC50 (BRD4 BD1): 100 to 1000 nM
IC50 (MV4-11 cells): 100 to 500 nM

Structure (SMILES): CC(=O)N1c2ccc(-c3ccc4[nH]ccc4n3)cc2N(C(=O)c2ccco2)CC1C (stereo not shown) [Example I-397]
IC50 (BRD4 BD1): 1000 to 10000 nM
IC50 (BRD4 BD2): 50 to 500 nM

Structure (SMILES): CC(=O)N1c2ccc(-c3ccc(S(C)(=O)=O)cc3)cc2N(c2nccc(-c3ccccc3)n2)C[C@@H]1C [Example I-49, (S)-1-(2-methyl-6-(4-(methylsulfonyl)phenyl)-4-(4-phenylpyrimidin-2-yl)-3,4-dihydroquinoxalin-1(2H)-yl)ethanone]
IC50 (BRD4 BD1): 1000 to 10000 nM
IC50 (BRD4 BD2): > 500 nM

Structure (SMILES): CC(=O)N1c2ccc(-c3ccc(S(C)(=O)=O)cc3)nc2N(C(=O)C2CC2)C[C@@H]1C [Example I-301]
IC50 (BRD4 BD1): 1000 to 10000 nM
IC50 (BRD4 BD2): > 500 nM

Structure (SMILES): COC(=O)N1c2ccc(-c3cnn(C4CNC4)c3)cc2N(C(=O)OC(C)C)C[C@@H]1C [Example I-358]
IC50 (BRD4 BD1): 1000 to 10000 nM
IC50 (BRD4 BD2): 50 to 500 nM

Structure (SMILES): CC(=O)N1c2ccc(-c3cnn(C4COC4)c3)cc2N(C(=O)[C@@H]2CC2(Cl)Cl)C[C@@H]1C (single isomer, unassigned) [Example I-112]
IC50 (BRD4 BD1): 1000 to 10000 nM
IC50 (BRD4 BD2): 50 to 500 nM

Structure (SMILES): CC(=O)N1c2ccc(-c3cnc(N)nc3)cc2N(C(=O)c2ccco2)C[C@@H]1C [Example I-296]
IC50 (BRD4 BD1): 1000 to 10000 nM
IC50 (BRD4 BD2): 50 to 500 nM

Structure (SMILES): CC(=O)N1c2ccc(-c3ccc4[nH]c(=O)[nH]c4c3)cc2N(C(=O)c2ccco2)CC1C (stereo not shown) [Example I-394]
IC50 (BRD4 BD1): 100 to 1000 nM
IC50 (BRD4 BD2): < 50 nM

From patent US10703764B2, “Benzopiperazine compositions as BET bromodomain inhibitors” (FORMA Therapeutics, Inc., priority 2013, dated 2020)
